{"source": "patent US6348571B1", "about": "“Corticotropin release inhibiting factor and methods of using same” (Northwestern University, priority 1994, dated 2002)", "key": {"[1]": {"system": "GH3 cells", "assay": "T3 treatment of GH3 cells transfected with human prepro-TRH: TRH mRNA expression", "assay_type": "cell-based, rat", "details": "1-100 nM"}, "[2]": {"system": "SCW-induced inflammatory response", "assay": "Thyroid status and SCW-induced inflammatory response in female rats", "assay_type": "in vivo, rat", "source_text": "RA is an autoimmune disease characterized by chronic degradation of the joints resulting from inflammation of synovial membranes. SCW-induced inflammation in the autoimmune prone female Lewis rat is an accepted animal model for the study of RA. […] It is likely that increased thyroid activity decreases the susceptibility to inflammatory immune disease by increasing glucocorticoid levels. The discovery of CRIF encoded within the same precursor as TRH establishes a direct link between the HPA and thyroid axes. Thyroid hormones may play a fundamental role in regulating the HPA axis by modulation of levels of prepro-TRH mRNA.\nTo determine the role played by thyroid hormones and concomitant changes in the HPA axis in the development of SCW-induced inflammatory response, expression of genes which reflect the status of thyroid function (TRH), pituitary-adrenal activity (POMC) and inflammation (IL-1β and MIP-1α, a macrophage specific inflammatory protein) was measured. Adult female rats were fed a regular diet (control), or a regular diet plus 0.012% T4 (hyperthyroid) or 0.05% 6-propyl-thiouracil (PTU) supplied in the in drinking water (hypothyroid), for seven weeks. A preparation of SCW (20 μg/g of body weight) was administered intraperitoneally to the rats three days before decapitation. Anterior pituitary POMC, hypothalamic TRH and peritoneal macrophage IL-1β and MIP-1α mRNA levels were assessed by Northern blot hybridization analysis using specific cDNA probes. The levels of mRNA were normalized to the housekeeping gene, GAPD, and were quantified by image analysis densitometry. Plasma levels of TSH and CORT were determined by RIA."}, "[3]": {"system": "SCW-induced inflammatory response", "details": "Rittenhouse et al., 1995; cited from earlier work"}, "[4]": {"system": "AtT-20 cells", "assay": "Transfection of AtT-20 cells with prepro-TRH expression plasmids: ACTH secretion (RIA)", "assay_type": "cell-based, mouse", "details": "concluded from deletion studies and known prepro-TRH processing", "source_text": "The expression vector pCMV-TRH comprises cDNA encoding rat TRH under the control of the human cytomegalovirus (HCMV) immediate early promoter (Lee et al., 1988, J. Biol. Chem. 263:16604-16609). To generate this vector, a 1,322 bp fragment comprising sequences encoding TRH was excised from the plasmid pSP64, by digestion with HindIII and EcoRI. This fragment was then inserted into pcDNA-3 (Invitrogen, San Diego, Calif.) to generate pCMV-TRH comprising the HCMV immediate early promoter, the bovine growth hormone polyadenylation signal and cDNA encoding TRH inserted therebetween. This plasmid also contains sequences encoding resistance to neomycin and can therefore be used to select stably transfected cells.\nReferring to FIG. 1, two deletions were made in the expression vector pCMV-TRH. The first deletion, ΔBstEII, contains a deletion between nucleotides 506 and 787 in TRH cDNA. […] To generate ΔBstEII, pCMV-TRH was digested with BstEII, and a 6.4 kb fragment was isolated therefrom. The 5′ sticky ends were filled in with Klenow to create blunt ends, and the 6.4 kb fragment was then religated to form ΔBstEII. This religation results in restoration of the original wild type reading frame. […]\nACTH-like immunoreactivity was measured using an antiserum which reacts with amino acids 1-24 and 1-39 on ACTH on an equimolar basis. […]"}}}
{"compound": "N[C@@H](Cc1cc(I)c(Oc2ccc(O)c(I)c2)c(I)c1)C(=O)O", "note": "[T3]", "values": [{"measurement": "expression of TRH mRNA", "setting": "[1]", "value": "suppressing expression of TRH mRNA"}]}
{"compound": "N[C@@H](Cc1cc(I)c(Oc2cc(I)c(O)c(I)c2)c(I)c1)C(=O)O", "note": "[T4, thyroxin]", "values": [{"measurement": "increase in macrophage MIP-1α mRNA levels on SCW administration", "setting": "[2]; SCW 20 μg/g ip, SCW-administered control rats 17-fold", "value": 1.7, "unit": "fold"}, {"measurement": "plasma CORT levels", "setting": "[2]; altered thyroid status, FIG. 12E", "value": "significant increase"}, {"measurement": "decrease of hypothalamic TRH mRNA levels", "setting": "[2]; hyperthyroid group, 0.012% in diet, seven weeks", "value": 20, "unit": "%"}, {"measurement": "inflammatory effects of SCW-induced autoimmune responses", "setting": "[3]", "value": "decreases the adverse inflammatory effects"}]}
{"compound": "prepro-TRH 172-199: includes the uncleaved fourth TRH portion covalently bound to the amino terminal portion of peptide 178-199 (QHPGRRFIDPELQRSWEEKEGEGVLMPE; UniProt P01150 172-199, looked up, fragment)", "values": [{"measurement": "CRIF activity", "setting": "[4]", "value": "has CRIF activity"}]}
